According to patent US6849661B2, “Treatment of abnormal increases in gastrointestinal motility with (R)-verapamil” (AGI Therapeutics, Ltd., priority 2002, dated 2005):
Several values for one entry are separate records, joined by “and”; a condition that tells them apart may be missing. Equal entries are not always repeated. Where two headings read alike, the source gives them in different places.

What was measured:
[1] = test system: rat vas epididymal tissue; assay: Contractions in rat vas deferens, epididymal portion (in the presence of nifedipine); assay type: cell-based; settings: high concentrations, FIG. 3
Text: (§1) In rat vas deferens there are two components to nerve stimulation, an […] component, dominant in the epididymal portion, and a non-adrenergic (purinergic) component, dominant in the prostatic portion. […] (Brown et al., Br J Pharmacol., 79:379-393, 1983).

rat aortic tissue = settings: for pIC50 (−log M), Aorta / IC50: KCl 80 mM contracted rat aorta; for IC50: read-out: IC50 (M), Aorta
Method: (§2) Rat aortic tissue was prepared and mounted in a tissue bath by standard methods familiar to those skilled in the art. The physiological medium contained KCl at a concentration of 80 mM, which produces contractions of the aortic tissue.

rat vas prostatic tissue = assay: Contractions to electrical stimulation in rat vas deferens, prostatic portion; assay type: cell-based; settings: FIG. 3
Text: as §1

rat colon tissue = assay: Relaxation of KCl (80 mM)-induced contractions in rat colon tissue (tissue bath); assay type: cell-based; settings: for IC50 / pIC50 (−log M), Colon: KCl 80 mM contracted rat colon
Method: as §2, with “colon” for “aortic”, “tissue. […] Potency was expressed as the concentration producing 50% of […] (IC50) or as the negative logarithm of the IC50 (pIC50).” for “tissue.”
Other compounds were tested for their ability to relax the KCl contractions, or block the relaxing action of verapamil.

Compound	effect on epididymal contraction [1]	pIC50 (−log M), Aorta (rat aortic tissue)	IC50 (rat aortic tissue)	effect on contractions to electrical stimulation in vas prostatic tissue (rat vas prostatic tissue)	IC50 (rat colon tissue) [nM]	pIC50 (−log M), Colon (rat colon tissue)	ability to relax the KCl contractions (rat colon tissue; rat colon)	other results
COc1ccc(CCN(C)CCC[C@](C#N)(c2ccc(OC)c(OC)c2)C(C)C)cc1OC [(R)-verapamil]	reduced this epididymal contraction	5.35±0.24 −log M	4.47e-06 M and 4.78e-06 M	neither (R)-verapamil nor (S)-verapamil abolished contractions	851	6.07±0.16 −log M		pIC50 (−log M), Aorta (rat aortic tissue; listed as R Isomer): 5.35 −log M; times less potent than (S)-verapamil in the aorta (rat aortic tissue; rat aorta): 10 times; IC50 (rat aortic tissue; listed as R Isomer): 4.47e-06 M; pIC50 (−log M), Colon (rat colon tissue; listed as R Isomer): 6.07 −log M; times less potent than (S)-verapamil in the intestine (rat colon tissue; rat colon): three
COc1ccc(CCN(C)CCC[C@@](C#N)(c2ccc(OC)c(OC)c2)C(C)C)cc1OC [(S)-verapamil]	reduced this epididymal contraction	6.32±0.03 −log M	4.78e-07 M	neither (R)-verapamil nor (S)-verapamil abolished contractions	295	6.53±0.13 −log M and 6.32±0.03 −log M		times more potent than (R)-verapamil in colon (rat colon tissue; rat colon, concentrations tested 1-100 μM): approximately 3 times
COc1ccc(Cl)cc1C(=O)NCCc1ccc(S(=O)(=O)NC(=O)NC2CCCCC2)cc1 [Glibenclamine]								ability to block the relaxing action of verapamil on KCl contractions (rat colon tissue; rat colon): did not block the verapamil-induced relaxations
COc1cc2nc(N3CCN(C(=O)c4ccco4)CC3)nc(N)c2cc1OC [Prazosin]							did not significantly relax KCl contractions	
Cc1cccc(C)c1N=C1NCCCS1 [Xylazine]							small relaxation of the contractions, but only at the highest concentration tested (10^−4M)	
